# Columns and labels:
# [1] = biological target: T1, PDK1 (Homo sapiens (Human), UniProt O15530); assay: PDK1 ATP Depletion Kinase Assay (Kinase-Glo luminescence); type: biochemical; conditions: PDKtide substrate, read-out: PDK1 Kinase assays (IC50, μM) Activity Assay
# Method: Test compounds were diluted to desired concentrations in kinase reaction buffer and briefly incubated with human recombinant PDK1 kinase which is histidine-tagged (Invitrogen Corporation, Carlsbad, Calif.). The reaction was subsequently initiated by the addition of ATP and PDKtide substrate (Millipore Corporation, Billerica, Massachussetts). […] After an incubation of 60 minutes at room temperature, 10 μl of the Kinase-Glo reagent (Promega Corporation, Madison, Wis.) was added to each well and incubated for an additional 10 minutes. Luminescence was measured on an EnVision microplate reader (PerkinElmer). The amount of luminescence from each reaction is inversely correlated with PDK1 kinase activity. Percent inhibition and IC50 values can be calculated by comparing enzyme activity in drug-treated wells to the appropriate controls, e.g. vehicle control.
# (§1) IC50 values are determined using GraphPad Prism 5 software. The data were entered as an X-Y plot into the software as percent inhibition for each concentration of the drug. The concentration values of the drug were log transformed and the nonlinear regression was carried out using the “sigmoidal dose-response (variable slope)” option within the GraphPad software to model the data and calculate IC50 values.
# [2] = biological target: T1, PDK1; assay: Time resolved-FRET LanthaScreen Kinase Binding Assay; conditions: TR-FRET Lanthascreen Kinase Binding Assay; read-out: PDK1 Kinase assays (IC50, μM) Binding Assay
# From the text: Binding of the tracer to the kinase is detected using a europium-labeled anti-tag antibody, which binds to the kinase of interest. […] Binding of an inhibitor to the kinase competes for binding with the tracer, resulting in a loss of FRET.
# Activity of compounds was routinely assessed using a secondary assay as described herein. The secondary assay was a time resolved-FRET LanthaScreen Kinase Binding Assay (Invitrogen Corporation, Carlsbad, Calif.). This assay evaluates the ability of the test compound to compete with a fluorescently-labeled tracer molecule to bind in the ATP pocket of a kinase. The assay signal is generated when a Europium-conjugated anti-His tag antibody (Invitrogen) bound to the His-tagged kinase produces a TR-FRET signal with the tracer molecule bound in the ATP pocket of the kinase. […] After 60 minutes of incubation at room temperature, the TR-FRET signal was measured on an EnVision microplate reader.
# as §1
# [3] = biological target: T1, PDK1; assay: PDK1 fluorometric activity assay performed by Life Technologies; type: biochemical; conditions: fluorometric assay performed by Life Technologies (Table IV); read-out: PDK1 Kinase assays (IC50)
# Method: PDK1 biochemical activity was measured by a fluorometric assay performed by Life Technologies (Grand Island, N.Y.). The assay conditions for PDK1 are as follows. The 2×PDK1/Ser/Thr-07 mixture is prepared in 50 mM Tris pH 8.5, 0.01% BRIJ-35, 10 mM MgCl2, 1 mM EGTA, 0.02% NaN3.
# The kinase specificity was measured using fluorometric assays performed by Life Technologies (Grand Island, N.Y.). Assay conditions vary for each kinase and are available from Life Technologies, Grand Island, NY. For example, the assay conditions for PDK1 are as follows. The 2×PDK1/Ser/Thr-07 mixture is prepared in 50 mM Tris pH 8.5, 0.01% BRIJ-35, 10 mM MgCl2, 1 mM EGTA, 0.02% NaN3.
# [4] = test system: AN3-CA cells; assay: Cell viability assay (ATP-lite); type: cell-based; conditions: Homo sapiens; AN3-CA (PTEN and PIK3R1 mutations); read-out: Cell Viability IC50 AN3-CA
# Method: (§2) AN3-CA (PTEN-deficient), RL95-2 (PTEN-deficient), and HEC-1A (PTEN-wild type) cells were plated in 45 μl of RPMI-1640 media supplemented with 10% FBS and 1% Pen/Strep at a density of 1000 cells per well in white 384-well plates. Cells were allowed to attach by incubation overnight at 37° C. and 5% CO2. Test compounds were diluted to 10× concentrations in RPMI-1640 media (containing 3% DMSO) and 5 μl 1 of these dilutions were added in triplicate to the appropriate wells containing the cells. The plates containing the drug-treated cells and appropriate controls were incubated for 96 hours. At the end of the incubation, 40 μl of ATP-lite (PerkinElmer, Inc., Waltham, Massachussetts) reagent were added to each well and luminescence signal was measured on an EnVision microplate reader.
# (§3) Alternatively, AN3-CA, RL95-2, HEC-1A endometrial cancer cell lines were plated at a density of 2000 cells per well in a 96 well culture plate in 45 μl of cell culture media and incubated overnight. The following day, test compounds were added to the cells in 5 μl of serum-free media to generate final concentrations of 10, 3, 1, 0.3, 0.1, 0.03, 0.01, or 0.003 μM. Vehicle treated controls were also included and each condition was applied in quadruplicate. Following 96 hours of incubation, 35 μL of ATP-lite (PerkinElmer) reagent was added each well and allowed to react for 10 minutes. Plate was read on a Envision 2104 MultiLabel reader (PerkinElmer).
# as §1
# [5] = test system: HEC-1A cells; assay: Cell viability assay (ATP-lite); type: cell-based; conditions: Homo sapiens; HEC-1A (PTEN-wild type); read-out: Cell Viability IC50 HEC-1A
# Method: as §2
# as §3, with “The following day, test compounds were added to the cells in 5 μl of serum-free media to generate final concentrations of 10, 3, 1, 0.3, 0.1, 0.03, 0.01, or 0.003 μM.” left out
# as §1
# [6] = test system: RL95-2 cells; assay: Cell viability assay (ATP-lite); type: cell-based; conditions: Homo sapiens; RL95-2 (PTEN mutation); read-out: Cell Viability IC50 RL95-2
# Method: as §2
# as §3, with “The following day, test compounds were added to the cells in 5 μl of serum-free media to generate final concentrations of 10, 3, 1, 0.3, 0.1, 0.03, 0.01, or 0.003 μM.” left out
# as §1
# T1 sequence (O15530 whole entry): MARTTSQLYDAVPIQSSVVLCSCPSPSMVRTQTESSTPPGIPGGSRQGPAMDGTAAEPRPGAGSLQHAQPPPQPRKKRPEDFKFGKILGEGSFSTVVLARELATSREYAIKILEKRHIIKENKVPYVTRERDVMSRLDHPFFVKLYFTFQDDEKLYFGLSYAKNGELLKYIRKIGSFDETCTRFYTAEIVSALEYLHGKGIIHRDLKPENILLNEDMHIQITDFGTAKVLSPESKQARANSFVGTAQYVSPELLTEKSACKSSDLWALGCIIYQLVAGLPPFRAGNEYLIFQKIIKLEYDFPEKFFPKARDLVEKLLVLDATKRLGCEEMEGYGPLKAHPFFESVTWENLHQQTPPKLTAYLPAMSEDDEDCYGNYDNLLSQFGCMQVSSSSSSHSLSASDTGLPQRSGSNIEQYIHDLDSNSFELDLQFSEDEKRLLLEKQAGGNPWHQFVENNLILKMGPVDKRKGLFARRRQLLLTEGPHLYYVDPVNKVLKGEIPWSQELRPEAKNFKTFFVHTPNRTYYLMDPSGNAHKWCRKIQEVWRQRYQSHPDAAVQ
IC50 [1],IC50 [2],IC50 [3],Compound,IC50 [4],IC50 [5],IC50 [6]
0.283 µM,0.229 µM,0.23 µM,O=C(Nc1ccc2[nH]nc(-c3nc4cc(N5CCOCC5)ccc4[nH]3)c2c1)C1CC1 [Compound 3],,,
0.304 µM,0.265 µM,0.265 µM,O=C(Nc1ccc2[nH]nc(-c3nc4cc(N5CCOCC5)ccc4[nH]3)c2c1)C1CCC(F)(F)CC1 [Compound 4],,,
0.78 µM,,0.78 µM,CC1CCN(c2ccc3[nH]c(-c4n[nH]c5ccc(NC(=O)C6CC6(F)F)cc45)nc3c2)CC1 (centres unmarked) [Compound 5],,,
1.5 µM,0.41 µM,0.41 µM,O=C(Nc1ccc2[nH]nc(-c3nc4ccccc4[nH]3)c2c1)C1CCC(F)(F)CC1 [Compound 6],2.07 µM,9.65 µM,2.3 µM
1.74 µM,1.23 µM,1.23 µM,O=C(Nc1ccc2[nH]nc(-c3nc4ccccc4[nH]3)c2c1)C1CC1 [Compound 7],,,
1.94 µM,0.28 µM,0.28 µM,O=C(Nc1ccc2[nH]nc(-c3nc4ccccc4[nH]3)c2c1)C1CC1(F)F (centres unmarked) [Compound 8],0.33 µM,14.8 µM,6.97 µM
3.75 µM,1.22 µM,1.22 µM,O=C(Nc1ccc2[nH]nc(-c3nc4cc(CN5CCOCC5)ccc4[nH]3)c2c1)C1CC1(F)F (centres unmarked) [Compound 9],0.443 µM,18.4 µM,3.22 µM
4.4 µM,0.385 µM,0.385 µM,O=C(Nc1cccc2[nH]nc(-c3nc4ccc(N5CCOCC5)cc4[nH]3)c12)C1CC1(F)F (centres unmarked) [Compound 10],,,
10.9 µM,,,Brc1ccc2[nH]nc(-c3nc4ccccc4[nH]3)c2c1 [Compound 11],12.1 µM,29.5 µM,11.5 µM
11.6 µM,0.92 µM,0.92 µM,O=C(Nc1ccc2[nH]nc(-c3nc4ccccc4[nH]3)c2c1)NC1CC1 [Compound 12],18 µM,12.7 µM,17 µM
21.1 µM,8.79 µM,8.8 µM,O=C(Nc1ccc2[nH]nc(-c3nc4ccccc4[nH]3)c2c1)c1cccc(F)c1 [Compound 13],23.8 µM,50.7 µM,15.3 µM
23.7 µM,15.3 µM,15.3 µM,CS(=O)(=O)c1cccc(-c2ccc3[nH]nc(-c4nc5ccccc5[nH]4)c3c2)c1 [Compound 14],10.1 µM,20.1 µM,35.1 µM
55.7 µM,30.3 µM,30.3 µM,FC(F)(F)c1cccc(-c2ccc3[nH]nc(-c4nc5ccccc5[nH]4)c3c2)c1 [Compound 15],,,
58.5 µM,5.17 µM,5.2 µM,CC(C)(C#N)c1ccc(-c2ccc3[nH]nc(-c4nc5ccccc5[nH]4)c3c2)cc1 [Compound 16],79.3 µM,28.7 µM,15.1 µM
> 100 µM,> 100 µM,,O=C(Nc1ccc2c(-c3nc4ccc(N5CCOCC5)cc4[nH]3)n[nH]c2c1)C1CC1(F)F (centres unmarked) [Compound 21],,,

Compound,IC50 [1],IC50 [2],IC50 [3],IC50 [4],IC50 [5],IC50 [6]
O=C(Nc1ccc2[nH]nc(-c3nc4ccccc4[nH]3)c2c1)Nc1ccc(F)cc1F [Compound 17],> 100 µM,> 100 µM,,,,
CN1CCC(C)(C(=O)Nc2ccc3[nH]nc(-c4nc5ccccc5[nH]4)c3c2)CC1 [Compound 18],> 100 µM,,,15.4 µM,56.3 µM,6.24 µM
O=C(Nc1ccc2[nH]nc(-c3nc4ccccc4[nH]3)c2c1)NC1CCCC1 [Compound 19],> 100 µM,,,,,
O=C(Nc1ccc2[nH]nc(-c3nc4ccccc4[nH]3)c2c1)C1CCN(c2ccncc2)CC1 [Compound 20],> 100 µM,> 100 µM,,,,

# From US8569511B2, “Substituted 3-(1H-benzo[d]imidazol-2-yl)-1H-indazole analogs as inhibitors of the PDK1 kinase” (University of Utah Research Foundation, priority 2011, dated 2013)
